In US8735584B2 (Merck Patent GmbH, priority 2008, dated 2014):

biological target: T1, GST-Aurora A (Homo sapiens, UniProt O14965); assay: Aurora A IC50, Caliper LC3000 mobility shift assay; format: biochemical; conditions: LC3000 method; 15 uM ATP (the KM value); read-out: Aurora Kinase A Activity (IC50)
T1 construct: N-terminal GST fusion with full length Aurora A (1-403 amino acids); purchased Carna Biosciences 05-101
T1 sequence (O14965 1-403): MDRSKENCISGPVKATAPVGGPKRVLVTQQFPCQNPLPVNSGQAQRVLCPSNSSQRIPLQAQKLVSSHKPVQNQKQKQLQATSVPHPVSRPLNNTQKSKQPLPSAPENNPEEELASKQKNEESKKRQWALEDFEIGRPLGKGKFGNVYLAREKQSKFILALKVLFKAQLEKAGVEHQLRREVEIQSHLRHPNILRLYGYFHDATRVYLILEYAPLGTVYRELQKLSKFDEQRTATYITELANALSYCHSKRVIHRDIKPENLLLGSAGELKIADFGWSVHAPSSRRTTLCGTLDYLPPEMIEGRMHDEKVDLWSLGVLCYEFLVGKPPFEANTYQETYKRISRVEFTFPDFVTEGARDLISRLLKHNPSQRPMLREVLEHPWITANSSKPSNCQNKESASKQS
Procedure, shortened: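 GST-tagged full-length Aurora A (0.067 ng/ul) with 15 uM ATP (KM) and 1 uM FITC-LRRASLG peptide in 100 mM HEPES pH 7.5, 1 mM MgCl2, 1 mM DTT, Brij-35; 90 min at 25 C, EDTA stop. Off-chip mobility shift read of substrate-to-product conversion; IC50 from sigmoidal dose-response.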

SMILES | IC50
O=C(Nc1ccc(Nc2ccnc3[nH]c(=O)c4ccccc4c23)cc1)C1CCCCC1 [Compound 386, Cyclohexanecarboxylic acid-[4-(6-oxo-5,6-dihydro-benzo[c][1,8]naphthyridin-1-ylamino)-phenyl]-amide] | < 11 nM
O=C(Nc1ccc(Nc2ccnc3[nH]c(=O)c4ccccc4c23)cc1)c1ccc(Cl)cc1 [Compound 389, 4-Chloro-N-[4-(6-oxo-5,6-dihydro-benzo[c][1,8]naphthyridin-1-ylamino)-phenyl]-benzamide] | < 11 nM
O=C(Nc1ccc(Nc2ccnc3[nH]c(=O)c4ccccc4c23)cc1)c1cc(Cl)cc(Cl)c1 [Compound 390, 3,5-Dichloro-N-[4-(6-oxo-5,6-dihydro-benzo[c][1,8]naphthyridin-1-ylamino)-phenyl]-benzamide] | < 11 nM
O=C(Nc1ccccc1Nc1ccnc2[nH]c(=O)c3ccccc3c12)c1ccccc1 [Compound 392, N-[2-(6-Oxo-5,6-dihydro-benzo[c][1,8]naphthyridin-1-ylamino)-phenyl]-benzamide] | > 100 nM
O=C(Nc1ccc(Nc2ccnc3[nH]c(=O)c4ccccc4c23)cc1)c1cccc(Cl)c1 [Compound 393, 3-Chloro-N-[4-(6-oxo-5,6-dihydro-benzo[c][1,8]naphthyridin-1-ylamino)-phenyl]-benzamide] | < 11 nM
Cc1ccc(C(=O)Nc2ccc(Nc3ccnc4[nH]c(=O)c5ccccc5c34)cc2)cc1 [Compound 394, 4-Methyl-N-[4-(6-oxo-5,6-dihydro-benzo[c][1,8]naphthyridin-1-ylamino)-phenyl]-benzamide] | < 11 nM
O=C(Nc1ccc(Nc2ccnc3[nH]c(=O)c4ccccc4c23)cc1)c1c(Cl)cccc1Cl [Compound 395, 2,6-Dichloro-N-[4-(6-oxo-5,6-dihydro-benzo[c][1,8]naphthyridin-1-ylamino)-phenyl]-benzamide] | < 11 nM
O=C(Nc1ccc(Nc2ccnc3[nH]c(=O)c4ccccc4c23)cc1)c1ccc(Cl)c(Cl)c1 [Compound 398, 3,4-Dichloro-N-[4-(6-oxo-5,6-dihydro-benzo[c][1,8]naphthyridin-1-ylamino)-phenyl]-benzamide] | < 11 nM
O=C(Nc1ccc(Nc2ccnc3[nH]c(=O)c4ccccc4c23)cc1)c1ccc(OC(F)(F)F)cc1 [Compound 401, N-[4-(6-Oxo-5,6-dihydro-benzo[c][1,8]naphthyridin-1-ylamino)-phenyl]-4-trifluoromethoxy-benzamide] | 11 to 100 nM
O=C(NC1CCC(Nc2ccnc3[nH]c(=O)c4ccccc4c23)CC1)c1ccc(F)c(F)c1 (centres unmarked) [Compound 402, 3,4-Difluoro-N-[4-(6-oxo-5,6-dihydro-benzo[c][1,8]naphthyridin-1-ylamino)-cyclohexy]-benzamide] | 11 to 100 nM
O=C(Nc1ccc(Nc2ccnc3[nH]c(=O)c4ccc(C(F)(F)F)cc4c23)cc1)c1ccc(F)cc1C(F)(F)F [Compound 404, 4-Fluoro-N-[4-(9-trifluoromethyl-6-oxo-5,6-dihydro-benzo[c][1,8]naphthyridin-1-ylamino)-phenyl]-2-trifluoromethyl-benzamide] | < 11 nM
O=C(Nc1ccc(Oc2ccnc3[nH]c(=O)c4ccccc4c23)cc1)c1ccccc1 [Compound 405, N-[4-(6-Oxo-5,6-dihydro-benzo[c][1,8]naphthyridin-1-yloxy)-phenyl]-benzamide] | 11 to 100 nM
O=C(c1ccc(F)c(F)c1)N1CCC(CNc2ccnc3[nH]c(=O)c4ccccc4c23)CC1 [Compound 408, 1-{[1-(3,4-Difluoro-benzoyl)-piperidin-4-ylmethyl]-amino}-5H-benzo[c][1,8]naphthyridin-6-one] | > 100 nM
COc1cc2c(=O)[nH]c3nccc(Nc4ccc(NC(=O)c5ccccc5)cc4)c3c2cc1OC [Compound 409, N-[4-(8,9-Dimethoxy-6-oxo-5,6-dihydro-benzo[c][1,8]naphthyridin-1-ylamino)-phenyl]-benzamide] | < 11 nM
O=C(Nc1ccc(Nc2ccnc3[nH]c(=O)c4ccc(F)cc4c23)cc1)c1ccccc1 [Compound 412, N-[4-(9-Fluoro-6-oxo-5,6-dihydro-benzo[c][1,8]naphthyridin-1-ylamino)-phenyl]-benzamide] | < 11 nM
O=C(Nc1ccc(Nc2ccnc3[nH]c(=O)c4ccc(F)cc4c23)cc1)c1ccc(F)cc1C(F)(F)F [Compound 413, 4-Fluoro-N-[4-(9-fluoro-6-oxo-5,6-dihydro-benzo[c][1,8]naphthyridin-1-ylamino)-phenyl]-2-trifluoromethyl-benzamide] | < 11 nM
O=C(Nc1ccc(Nc2ccnc3[nH]c(=O)c4cc(F)ccc4c23)cc1)c1ccc(F)cc1C(F)(F)F [Compound 414, 4-Fluoro-N-[4-(8-fluoro-6-oxo-5,6-dihydro-benzo[c][1,8]naphthyridin-1-ylamino)-phenyl]-2-trifluoromethyl-benzamide] | < 11 nM
O=C(Nc1ccc(Nc2ccnc3[nH]c(=O)c4cc(Cl)ccc4c23)cc1)c1ccc(F)cc1C(F)(F)F [Compound 415, 4-Fluoro-N-[4-(8-chloro-6-oxo-5,6-dihydro-benzo[c][1,8]naphthyridin-1-ylamino)-phenyl]-2-trifluoromethyl-benzamide] | < 11 nM

Now from value to compound:

IC50 | SMILES
< 11 nM | O=C(Nc1ccc(Nc2ccnc3[nH]c(=O)c4ccccc4c23)cc1)c1cccc(C(F)(F)F)c1F [Compound 387, 2-Fluoro-N-[4-(6-oxo-5,6-dihydro-benzo[c][1,8]naphthyridin-1-ylamino)-phenyl]-3-trifluoromethyl-benzamide]
< 11 nM | O=C(Nc1ccc(Nc2ccnc3[nH]c(=O)c4ccccc4c23)cc1)c1c(F)cccc1F [Compound 388, 2,6-Difluoro-N-[4-(6-oxo-5,6-dihydro-benzo[c][1,8]naphthyridin-1-ylamino)-phenyl]-benzamide]
< 11 nM | O=C(Nc1ccc(Nc2ccnc3[nH]c(=O)c4ccccc4c23)cc1)c1ccc(F)cc1F [Compound 391, 2,4-Difluoro-N-[4-(6-oxo-5,6-dihydro-benzo[c][1,8]naphthyridin-1-ylamino)-phenyl]-benzamide]
< 11 nM | O=C(Nc1ccc(Nc2ccnc3[nH]c(=O)c4ccccc4c23)cc1)c1cc(F)cc(C(F)(F)F)c1 [Compound 396, 3-Fluoro-N-[4-(6-oxo-5,6-dihydro-benzo[c][1,8]naphthyridin-1-ylamino)-phenyl]-5-trifluoromethyl-benzamide]
< 11 nM | O=C(Nc1ccc(Nc2ccnc3[nH]c(=O)c4ccccc4c23)cc1)c1ccc(C(F)(F)F)cc1F [Compound 397, 2-Fluoro-N-[4-(6-oxo-5,6-dihydro-benzo[c][1,8]naphthyridin-1-ylamino)-phenyl]-4-trifluoromethyl-benzamide]
< 11 nM | O=C(Nc1ccc(Nc2ccnc3[nH]c(=O)c4ccccc4c23)cc1)c1ccc(Cl)cc1Cl [Compound 399, 2,4-Dichloro-N-[4-(6-oxo-5,6-dihydro-benzo[c][1,8]naphthyridin-1-ylamino)-phenyl]-benzamide]
11 to 100 nM | O=C(Nc1ccc(Nc2ccnc3[nH]c(=O)c4ccccc4c23)cc1)c1cc(C(F)(F)F)cc(C(F)(F)F)c1 [Compound 400, N-[4-(6-Oxo-5,6-dihydro-benzo[c][1,8]naphthyridin-1-ylamino)-phenyl]-3,5-bis-trifluoromethyl-benzamide]
< 11 nM | O=C(Nc1ccc(Nc2ccnc3[nH]c(=O)c4ccc(C(F)(F)F)cc4c23)cc1)c1ccccc1 [Compound 403, N-[4-(9-Trifluoromethyl-6-oxo-5,6-dihydro-benzo[c][1,8]naphthyridin-1-ylamino)-phenyl]-benzamide]
